The target in assay [1] is 320 GPCRs (Homo sapiens, UniProt P41595). The assay is classed as cell-based.
For assay [2], the target named is 320 GPCRs (Homo sapiens, UniProt Q8IZF4). The format is cell-based.
Another assay deals with T1, COX-2 (Homo sapiens, UniProt P35354).
T1 construct: purchased Eurofins item 4186
Briefly: COX-2 inhibition (Eurofins item 4186). The assay is classed as biochemical. The source says:
. […] This panel includes several adverse drug reaction receptors such as the serotonin receptor 5HT2b, M1 and M2 muscarinic receptors and adrenergic receptors. […]. page 7:
Supplementary Figure 7: Non-GPCR off-target screening for 74. a)-e) Dose-response curves of 74 at […]
proliferator-activated receptor gamma (PPARγ, Eurofins item G124). Data in a)-e) and g)-i) represent two technical replicates. Source data are provided as a Source Data file.
(1 picture or pasted object on this page, not shown here)

A further assay deals with AURKA (Homo sapiens, UniProt O14965). Briefly: biochemical. The assay is classed as binding. To be noted: 10000 nM; read-out: Percent Control.
The target in another assay is CSNK1G2 (Homo sapiens, UniProt P78368). Briefly: biochemical. The format is binding. The settings on record: 10000 nM; read-out: Percent Control.
For the next assay, the target named is ERBB2 (Homo sapiens, UniProt P04626). Nature of the assay: biochemical. The format is binding. To be noted: 10000 nM; read-out: Percent Control.
The target in a further assay is FGFR3 (Homo sapiens, UniProt P22607). Briefly: biochemical. The format is binding. The settings on record: 10000 nM; read-out: Percent Control.
For the next assay, the target named is FLT3 (Homo sapiens, UniProt P36888). Briefly: biochemical. The format is binding. To be noted: 10000 nM; read-out: Percent Control.
For the next assay, the target named is JNK2 (Homo sapiens, UniProt P45984). Nature of the assay: biochemical. The assay is classed as binding. The settings on record: 10000 nM; read-out: Percent Control.
The target of another assay is TSSK1B (Homo sapiens, UniProt Q9BXA7). Nature of the assay: biochemical. The format is binding. To be noted: 10000 nM; read-out: Percent Control.

Values joined by “and” are separate entries in the source; they are usually repeats but may differ in a detail not shown here. Equal values may be shown once. “Also recorded” adds a separate entry of the source.

320 GPCRs (Homo sapiens, UniProt P41595), sequence (P41595 whole entry): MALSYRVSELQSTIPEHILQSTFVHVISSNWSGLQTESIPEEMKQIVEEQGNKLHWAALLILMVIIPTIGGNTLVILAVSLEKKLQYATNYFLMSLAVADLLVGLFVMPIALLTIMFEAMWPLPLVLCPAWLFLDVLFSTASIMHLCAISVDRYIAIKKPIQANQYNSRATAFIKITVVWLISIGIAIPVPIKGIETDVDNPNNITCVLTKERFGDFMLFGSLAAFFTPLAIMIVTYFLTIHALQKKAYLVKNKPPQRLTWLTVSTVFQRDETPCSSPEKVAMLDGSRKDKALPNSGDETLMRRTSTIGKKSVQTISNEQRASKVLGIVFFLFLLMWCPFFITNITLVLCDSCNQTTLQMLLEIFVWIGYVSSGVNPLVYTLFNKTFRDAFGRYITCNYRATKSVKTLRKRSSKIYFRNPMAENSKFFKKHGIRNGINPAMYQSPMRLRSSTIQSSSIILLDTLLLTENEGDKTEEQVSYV
T1 sequence (P35354 18-604): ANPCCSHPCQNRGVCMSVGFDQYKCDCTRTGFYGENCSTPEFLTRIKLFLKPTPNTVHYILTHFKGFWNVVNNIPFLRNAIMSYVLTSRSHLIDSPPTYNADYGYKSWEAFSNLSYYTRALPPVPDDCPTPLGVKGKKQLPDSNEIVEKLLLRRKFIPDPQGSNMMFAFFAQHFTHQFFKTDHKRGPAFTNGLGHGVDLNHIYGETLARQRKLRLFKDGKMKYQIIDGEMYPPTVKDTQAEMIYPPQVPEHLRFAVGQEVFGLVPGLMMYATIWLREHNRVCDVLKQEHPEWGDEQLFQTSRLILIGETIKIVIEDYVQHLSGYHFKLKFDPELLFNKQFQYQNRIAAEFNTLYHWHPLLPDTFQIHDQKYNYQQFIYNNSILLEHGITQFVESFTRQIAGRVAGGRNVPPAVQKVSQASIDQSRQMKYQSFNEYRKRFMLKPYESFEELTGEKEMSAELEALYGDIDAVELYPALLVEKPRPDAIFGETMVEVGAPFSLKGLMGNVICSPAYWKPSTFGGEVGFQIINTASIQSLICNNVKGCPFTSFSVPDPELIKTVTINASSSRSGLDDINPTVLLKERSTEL
320 GPCRs (Homo sapiens, UniProt Q8IZF4), sequence (Q8IZF4 22-528): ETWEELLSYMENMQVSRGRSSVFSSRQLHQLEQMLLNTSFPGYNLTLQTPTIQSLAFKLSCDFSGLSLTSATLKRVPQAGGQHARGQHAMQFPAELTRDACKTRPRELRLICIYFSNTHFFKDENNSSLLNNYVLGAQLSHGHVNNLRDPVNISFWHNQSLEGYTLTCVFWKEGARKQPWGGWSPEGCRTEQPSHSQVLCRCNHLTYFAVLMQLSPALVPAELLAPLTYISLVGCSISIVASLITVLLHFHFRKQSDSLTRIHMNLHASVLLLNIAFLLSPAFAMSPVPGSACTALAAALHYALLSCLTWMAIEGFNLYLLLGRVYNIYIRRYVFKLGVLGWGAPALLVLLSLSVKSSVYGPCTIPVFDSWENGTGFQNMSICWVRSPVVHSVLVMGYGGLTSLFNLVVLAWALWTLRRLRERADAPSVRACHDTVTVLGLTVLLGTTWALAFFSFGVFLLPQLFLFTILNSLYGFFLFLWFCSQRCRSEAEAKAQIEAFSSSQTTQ
FLT3, sequence (P36888 27-993): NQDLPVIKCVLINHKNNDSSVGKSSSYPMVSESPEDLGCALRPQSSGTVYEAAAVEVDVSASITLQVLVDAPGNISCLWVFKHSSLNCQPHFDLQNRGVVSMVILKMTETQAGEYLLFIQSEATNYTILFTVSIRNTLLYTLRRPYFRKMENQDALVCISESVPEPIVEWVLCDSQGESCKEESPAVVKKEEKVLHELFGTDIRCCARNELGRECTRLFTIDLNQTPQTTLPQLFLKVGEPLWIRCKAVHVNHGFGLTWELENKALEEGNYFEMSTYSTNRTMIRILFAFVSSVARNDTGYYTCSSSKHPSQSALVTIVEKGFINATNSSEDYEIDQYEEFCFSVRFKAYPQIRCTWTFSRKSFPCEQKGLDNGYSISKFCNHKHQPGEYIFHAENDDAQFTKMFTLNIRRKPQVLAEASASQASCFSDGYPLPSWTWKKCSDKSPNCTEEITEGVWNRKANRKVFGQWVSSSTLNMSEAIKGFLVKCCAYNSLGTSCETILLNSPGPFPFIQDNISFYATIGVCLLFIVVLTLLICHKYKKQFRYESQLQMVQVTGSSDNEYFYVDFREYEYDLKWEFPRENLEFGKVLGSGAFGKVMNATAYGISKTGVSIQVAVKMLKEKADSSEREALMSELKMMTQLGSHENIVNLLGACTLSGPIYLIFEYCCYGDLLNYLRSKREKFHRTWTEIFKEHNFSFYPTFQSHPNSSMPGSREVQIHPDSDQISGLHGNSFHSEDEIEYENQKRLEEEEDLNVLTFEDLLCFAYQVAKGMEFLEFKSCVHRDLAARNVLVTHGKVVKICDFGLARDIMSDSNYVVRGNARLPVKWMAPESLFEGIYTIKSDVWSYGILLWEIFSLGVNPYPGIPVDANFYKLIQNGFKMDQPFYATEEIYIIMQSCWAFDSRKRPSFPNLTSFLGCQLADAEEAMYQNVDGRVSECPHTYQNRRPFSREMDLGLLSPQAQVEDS
ERBB2, sequence (P04626 23-1255): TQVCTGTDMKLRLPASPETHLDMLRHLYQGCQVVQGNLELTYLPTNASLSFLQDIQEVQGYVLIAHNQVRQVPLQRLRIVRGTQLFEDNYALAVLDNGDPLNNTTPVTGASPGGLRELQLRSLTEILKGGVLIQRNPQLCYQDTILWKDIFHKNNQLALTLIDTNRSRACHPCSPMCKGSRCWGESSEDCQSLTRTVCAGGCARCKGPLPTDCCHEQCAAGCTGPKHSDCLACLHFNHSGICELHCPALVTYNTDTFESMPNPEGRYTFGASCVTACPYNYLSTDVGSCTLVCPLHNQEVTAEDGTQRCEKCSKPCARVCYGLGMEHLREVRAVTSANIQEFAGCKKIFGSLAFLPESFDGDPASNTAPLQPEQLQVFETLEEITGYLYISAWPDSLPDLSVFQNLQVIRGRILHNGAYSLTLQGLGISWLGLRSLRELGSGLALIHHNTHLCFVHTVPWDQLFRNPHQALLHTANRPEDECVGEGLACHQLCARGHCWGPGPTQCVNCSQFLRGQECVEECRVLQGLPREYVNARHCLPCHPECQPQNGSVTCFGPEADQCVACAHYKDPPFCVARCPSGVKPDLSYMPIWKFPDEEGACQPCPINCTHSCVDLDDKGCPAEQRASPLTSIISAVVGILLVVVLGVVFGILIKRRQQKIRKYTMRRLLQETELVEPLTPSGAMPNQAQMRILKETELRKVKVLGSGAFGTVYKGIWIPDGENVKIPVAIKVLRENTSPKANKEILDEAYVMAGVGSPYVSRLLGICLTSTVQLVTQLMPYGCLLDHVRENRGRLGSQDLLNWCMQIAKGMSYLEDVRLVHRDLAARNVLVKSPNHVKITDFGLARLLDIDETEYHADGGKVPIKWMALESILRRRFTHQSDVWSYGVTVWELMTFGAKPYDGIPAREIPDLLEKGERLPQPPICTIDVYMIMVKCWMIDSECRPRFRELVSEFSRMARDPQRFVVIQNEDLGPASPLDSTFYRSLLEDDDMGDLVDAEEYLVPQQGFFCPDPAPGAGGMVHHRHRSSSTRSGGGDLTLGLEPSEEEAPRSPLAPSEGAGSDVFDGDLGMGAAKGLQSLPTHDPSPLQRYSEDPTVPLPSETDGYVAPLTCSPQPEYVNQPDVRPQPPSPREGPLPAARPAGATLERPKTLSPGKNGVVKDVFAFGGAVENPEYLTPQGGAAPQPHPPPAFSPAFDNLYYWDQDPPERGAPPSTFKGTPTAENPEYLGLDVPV
CSNK1G2, sequence (P78368 whole entry): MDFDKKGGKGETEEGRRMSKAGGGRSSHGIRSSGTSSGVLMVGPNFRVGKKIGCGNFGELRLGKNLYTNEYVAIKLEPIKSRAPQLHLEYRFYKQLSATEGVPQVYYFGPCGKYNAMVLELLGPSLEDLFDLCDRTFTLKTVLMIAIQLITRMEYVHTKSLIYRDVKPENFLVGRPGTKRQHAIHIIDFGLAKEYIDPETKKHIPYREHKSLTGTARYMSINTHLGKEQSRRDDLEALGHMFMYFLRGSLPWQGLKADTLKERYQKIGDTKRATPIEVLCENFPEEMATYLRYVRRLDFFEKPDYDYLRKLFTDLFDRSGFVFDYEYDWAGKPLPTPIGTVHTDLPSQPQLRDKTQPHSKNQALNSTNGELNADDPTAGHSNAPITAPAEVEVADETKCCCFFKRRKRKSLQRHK
AURKA, sequence (O14965 whole entry): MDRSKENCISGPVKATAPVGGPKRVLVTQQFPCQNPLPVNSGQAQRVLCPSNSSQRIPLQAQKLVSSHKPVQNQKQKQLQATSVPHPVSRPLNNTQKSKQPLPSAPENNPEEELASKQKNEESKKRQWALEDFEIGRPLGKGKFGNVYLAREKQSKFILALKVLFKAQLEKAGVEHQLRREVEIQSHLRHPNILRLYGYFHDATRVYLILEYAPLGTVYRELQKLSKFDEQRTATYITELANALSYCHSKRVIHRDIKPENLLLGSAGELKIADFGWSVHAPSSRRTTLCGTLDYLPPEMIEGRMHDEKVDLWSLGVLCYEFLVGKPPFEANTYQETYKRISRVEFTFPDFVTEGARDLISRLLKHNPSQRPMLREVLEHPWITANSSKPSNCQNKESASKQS
TSSK1B, sequence (Q9BXA7 whole entry): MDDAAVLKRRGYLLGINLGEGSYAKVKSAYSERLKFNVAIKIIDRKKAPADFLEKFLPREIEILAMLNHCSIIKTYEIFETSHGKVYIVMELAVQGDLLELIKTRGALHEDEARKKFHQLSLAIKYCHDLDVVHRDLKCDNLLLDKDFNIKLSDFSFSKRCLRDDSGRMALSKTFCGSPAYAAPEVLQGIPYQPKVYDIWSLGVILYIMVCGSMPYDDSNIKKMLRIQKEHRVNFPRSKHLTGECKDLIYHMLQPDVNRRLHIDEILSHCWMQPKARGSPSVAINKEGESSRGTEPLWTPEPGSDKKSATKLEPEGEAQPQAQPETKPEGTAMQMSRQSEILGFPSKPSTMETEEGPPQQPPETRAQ

With `O=C(O)C1CCC2(CC1)CC(Nc1ncnc3[nH]c4c(F)cccc4c13)C2` (centres unmarked) [Compound 74, OC(=O)C1CCC2(CC(C2)NC=3N=CN=C4NC=5C(F)=CC=CC5C34)CC1], the “RLU (Fold over Basal)” value was 0.8 Fold over Basal and 0.9 Fold over Basal and 0.7 Fold over Basal and 1 Fold over Basal at 320 GPCRs [1]; 0.8 Fold over Basal and 1.1 Fold over Basal and 1.2 Fold over Basal on 320 GPCRs [2]. The “inhibitory / off-target activity at COX-2” value against COX-2 (3 µM) is “no off-target activity; also recorded: no inhibitory activity”. Further, the “%Inhibition of Control Values” on COX-2 (COX-2, 3 µM, technical replicates) is -20.9% and -2.6%. Further, the remaining activity at 10 µM amounted to 22% at AURKA; 54% at CSNK1G2; 49% at ERBB2; 81% on FGFR3; 26% at FLT3; 41% at JNK2. Also, the remaining activity at 10 µM on TSSK1B was 52%.
